Like-named read-outs stand apart in the source and are kept apart here.
Key:
chymotripsin = chymotripsin (Bos taurus, UniProt P00766); experiment: Chymotripsin inhibiting activity; format: biochemical; conditions: 0.5 h; compound 1×10^-4 mole, ATEE substrate, pH 8.0, 37° C.; read-out: Percent chymotripsin inhibition
Experimental: Chymotripsin (0.1 unit) serving as an enzyme solution is added to a specified quantity of buffer solution containing 0.1 mole of trishydrochloric acid (pH 8.0). To the mixture is further added a 50% ethanol solution of the compound of the invention so that the resulting mixture contains the compound in a concentration of 1×10^-4 mole. The mixture is reacted at 37° C. for 20 minutes.
On completion of the reaction, 10 micromoles of N-acetyl-L-thyrosine ethyl ester (ATEE) serving as a substrate is added to the mixture, and the resulting mixture is reacted at 37° C. for 30 minutes.
After the completion of the reaction, the amount of remaining ATEE is determined by the same hydroxamic acid method as above. The percent chymotripsin inhibition is given by [formula] wherein A is the amount of hydrolyzed esters in the reaction system not containing the compound of the invention, and B is the amount of hydrolyzed esters in the reaction system containing the present compound.

esterase = experiment: Esterase inhibiting activity; format: biochemical; conditions: rat liver microsome esterase, methyl butyrate substrate, pH 8.0, 37° C., 60 minutes; read-out: IC50 for esterases
Experimental: A 10 micromole quantity of methyl butyrate in a 50% ethanol solution is added as a substrate to a specified amount of buffer solution containing 0.1 mole of trishydrochloric acid (pH 8.0). To the mixture is further added a 50% ethanol solution of the compound of the invention, immediately followed by addition of an esterase solution prepared from a purified microsome fraction of the liver of a rat (adjusted to hydrolyze 9 micromoles of methyl butyrate at 37° C. in one hour) as an enzyme solution. The mixture is reacted at 37° C. for 60 minutes.
After the reaction, alkaline hydroxylamine is added to the mixture to form a hydroxamic acid derivative of methyl butyrate, and a ferric salt is added to the derivative. The resulting red color is colorimetrically determined (at a wavelength of 540 nm) to determine the amount of remaining methyl butyrate. The esterase inhibiting ratios of the present compound at least at three concentrations are plotted as ordinate, and the logarithms of the concentrations as abscissa to obtain a line, which gives the 50% inhibition concentration (IC50).

triglycerides = experiment: Antilipemic effect: percent triglycerides inhibition in plasma of rats given an olive oil-cholesterol mixture; format: in vivo, male Wistar rats; conditions: for inhibition in vivo at 200 mg/kg: oral 200 mg/kg (asterisked values), read-out: Anti-lipemic effect, TG (percent triglycerides inhibition), asterisked; for TG (percent triglycerides inhibition), Table 3: dose not given; for inhibition in vivo at 100 mg/kg: read-out: Anti-lipemic effect, TG (percent triglycerides inhibition)
Experimental: (§1) The above compounds of this invention are tested by the following methods for antilipemic effect and acute toxicity. In the column of antilipemic effect in the table, the asterisked values indicate the effect achieved by orally giving 200 mg/kg of the compounds concerned, and the unmarked values, the effect attained by orally giving 100 mg/kg. In the same column, "TG" stands for percent triglycerides inhibition and "CS" percent cholesterol inhibition.
(§2) Seven-week-old male Wistar rats weighing 200 to 220 g are used, 5 rats in each group.
(§3) Each compound of the invention (100 mg or 200 mg) is dissolved in 10 ml of an olive oil-cholesterol mixture (containing 15% of cholesterol). The mixture containing the compound is orally given to the rat with a probe at a dose of 10 ml/kg. Two or 8 hours thereafter, 6 ml of whole blood is withdrawn from the descending aorta of the rat under ether anesthesia with a syringe containing heparin. The blood is centrifuged at 5° C. and 3000 r.p.m. to obtain the plasma. The plasma collected after the lapse of 2 hours is used for determining the triglycerides content, and the plasma obtained 8 hours later for determining the total cholesterol content, using a triglycerides measuring kit (trade mark "Triglycerides-B Test Wako," product of Wako Junyaku Co., Ltd., Japan) and a total cholesterol measuring kit (trade mark "Cholesterol Test Wako," product of the same), respectively. The olive oil-cholesterol mixture containing no compound is similarly given to a control group, while no treatment is conducted for a normal group. The triglycerides and total cholesterol contents in the plasma are also determined for these groups in the same manner as is the case with the test groups.
(§4) The present hyperlipidemia inhibition achieved by the present compound is given by [formula] in which A is the triglycerides (cholesterol) content of the control group, B is the triglycerides (cholesterol) content of the normal group, and C is the triglycerides (cholesterol) content of the group to which the present compound is given.

Acute toxicity = conditions: rat, in vivo
From the text: Six-week-old male Wistar rats weighing 180 to 200 g are used, 5 rats in each group. Each compound of the invention is suspended in a 30% aqueous solution of polyethylene glycol 6000 and orally given to the rat at the dosage shown in Table 2. The animals are checked for poisoning, body weight and survival to determine the LD50 value.

cholesterol = experiment: Antilipemic effect: percent total cholesterol inhibition in plasma of rats given an olive oil-cholesterol mixture; format: in vivo, male Wistar rats; conditions: for inhibition in vivo at 100 mg/kg: read-out: Anti-lipemic effect, CS (percent cholesterol inhibition)
Experimental: as §1, §2, §3, §4

[1] = plasma 2 hours after dosing, Wistar rat
[2] = oral 100 mg/kg, plasma 2 hours after dosing, Wistar rat
[3] = oral 100 mg/kg, plasma 8 hours after dosing, Wistar rat
[4] = oral, six-week-old male Wistar rats, suspended in 30% aqueous polyethylene glycol 6000, read-out: LD50

inhibition at 100 µM (chymotripsin) [%] | IC50 (esterase) [µM] | Compound | LD50 (Acute toxicity; po) [mg/kg] | inhibition in vivo at 100 mg/kg (triglycerides; [2]) [%] | inhibition in vivo at 100 mg/kg (cholesterol; [3]) [%] | also measured
10 | 0.2 | Cc1cc(C)c(S(=O)(=O)OCC(=O)CC2CCCCC2)c(C)c1 [Compound 177] | – | – | – | –
32 | 1.5 | O=C(COS(=O)(=O)c1ccc(Cl)cc1)C1CCCCC1 [Compound 179] | – | – | – | –
98 | 3.5 | Cc1ccc(S(=O)(=O)OCC(=O)CC2CCCCC2)cc1 [Compound 166] | – | – | – | –
90 | 4.4 | Cc1ccc(S(=O)(=O)OCC(=O)CC2CCCC2)cc1 [Compound 165] | – | – | – | –
– | 32 | Cc1cc(C)c(S(=O)(=O)OCC(=O)C2CCOCC2)c(C)c1 [Compound 186] | – | – | – | –
47 | 30 | O=C(CCCCCNC(=O)OCc1ccccc1)COS(=O)(=O)c1ccccc1 [Compound 197] | – | – | – | –
– | 0.8 | O=C(COS(=O)(=O)c1ccc(O)cc1)CC1CCCCC1 [Compound 169] | – | – | – | –
46.8 | 0.82 | O=C(CCCCl)COS(=O)(=O)c1ccccc1 [Compound 193, 2-oxo-5-chloro-n-pentyl-benzene sulfonate] | – | – | – | –
– | – | CCCC(CC)C(=O)COS(=O)(=O)c1ccc(C)cc1 (centres unmarked) [Compound 123] | > 3000 | 67 | 60 | –
– | – | CCCC(=O)COS(=O)(=O)c1ccc(OCC)cc1 [Compound 43] | – | – | – | inhibition in vivo at 100 mg/kg (triglycerides; Rattus norvegicus, po, 2 h): 97%; LD50 (Acute toxicity; [4]): > 2000 mg/kg; inhibition in vivo at 100 mg/kg (cholesterol; Rattus norvegicus, po, 8 h): 120%
3.2 | 2.4 | COCCCC(=O)COS(=O)(=O)c1ccccc1 [Compound 194] | – | – | – | –
– | – | CCCCC(=O)COS(=O)(=O)c1ccccc1C [Compound 30] | > 1500 | 70 | 36 | –
– | – | CCCCC(=O)COS(=O)(=O)c1ccc(OC)cc1 [Compound 35, 2-oxahexyl-p-methoxybenzene sulfonate] | – | 87 | 72 | LD50 (Acute toxicity; [4]): > 2000 mg/kg
– | – | C=CCCC(=O)COS(=O)(=O)c1ccc(OC)cc1 [Compound 41] | > 2000 | 82 | 61 | –
– | – | CCCCC(C)C(=O)COS(=O)(=O)c1ccc(OCC)cc1 (centres unmarked) [Compound 139] | > 3000 | 84 | 87 | –
– | – | CCOc1ccc(S(=O)(=O)OCC(=O)CC(C)CC)cc1 (centres unmarked) [Compound 136] | > 4500 | 80 | 99 | –
– | – | CCCCC(=O)COS(=O)(=O)c1ccc(OCC)cc1 [Compound 44] | > 2000 | 99 | 90 | –
– | – | CCCC(=O)COS(=O)(=O)c1ccc(Cl)cc1 [Compound 64] | > 1000 | 82 | 56 | –
10 | 1.5 | COCCCC(=O)COS(=O)(=O)c1c(C)cc(C)cc1C [Compound 205] | – | – | – | –
– | 0.8 | Cc1cc(C)c(S(=O)(=O)OCC(=O)C2CCCCC2)c(C)c1 [Compound 176] | – | – | – | –
– | – | CCC(C)CCC(=O)COS(=O)(=O)c1c(C)cc(C)cc1C (centres unmarked) [Compound 159] | > 4000 | 49 | 51 | –
– | – | CCC(C)CC(=O)COS(=O)(=O)c1ccc(C)cc1 (centres unmarked) [Compound 125] | > 3000 | 68 | 44 | –
– | – | CCCCC(C)C(=O)COS(=O)(=O)c1c(C)cc(C)cc1C (centres unmarked) [Compound 155] | > 3000 | 67 | 71 | –
33 | 170 | CCOc1ccc(S(=O)(=O)OCC(=O)CCCC(=O)OC)cc1 [Compound 201, 2-oxo-5-methoxycarbonyl-n-pentyl-p-ethoxybenzene sulfonate] | – | – | – | –
13 | 1.6 | O=C(COS(=O)(=O)c1ccccc1)C1CCCCC1 [Compound 163] | – | – | – | –
– | – | CCC(CC)C(=O)COS(=O)(=O)c1ccc(C)cc1 [Compound 121] | > 3000 | 63 | 66 | –
– | – | CCC(CC)C(=O)COS(=O)(=O)c1c(C)cc(C)cc1C [Compound 148] | > 3000 | 96 | 80 | –
– | – | CCCCC(=O)COS(=O)(=O)c1ccc(Cl)cc1 [Compound 65] | > 1000 | 87 | 49 | –
– | – | CCCCCCCCC(=O)COS(=O)(=O)c1ccc(C)cc1 [Compound 21] | > 3000 | – | – | inhibition in vivo at 200 mg/kg (triglycerides; [1]): 70%; Anti-lipemic effect, CS (percent cholesterol inhibition), asterisked (cholesterol; oral 200 mg/kg (asterisked values), plasma 8 hours after dosing, Wistar rat): 43%

Compound | inhibition at 100 µM (chymotripsin) [%] | IC50 (esterase) [µM] | LD50 (Acute toxicity; po) [mg/kg] | inhibition in vivo at 100 mg/kg (triglycerides; [2]) [%] | inhibition in vivo at 100 mg/kg (cholesterol; [3]) [%] | also measured
CCCCCCCCCCCC(=O)COS(=O)(=O)c1ccc(O)cc1 [Compound 62] | 93 | 0.029 | > 3000 | – | – | inhibition in vivo at 200 mg/kg (triglycerides; [1]): 72%
C=CCCCCCCCCC(=O)COS(=O)(=O)c1ccc(C)cc1 [Compound 28] | 15 | 0.23 | > 3000 | – | – | inhibition in vivo at 200 mg/kg (triglycerides; [1]): 61%
Cc1ccc(S(=O)(=O)OCC(=O)CCc2ccccc2)cc1 [Compound 187] | 100 | 14 | – | – | – | TG (percent triglycerides inhibition), Table 3 (triglycerides): 94%
COC(=O)CCCC(=O)COS(=O)(=O)c1ccccc1 [Compound 196] | 65.3 | 6.8 | – | – | – | TG (percent triglycerides inhibition), Table 3 (triglycerides): 77.9%
CCCCCC(=O)COS(=O)(=O)c1ccc(Cl)cc1 [Compound 66] | 100 | 2.6 | – | 88 | – | –
O=C(CCc1ccccc1)COS(=O)(=O)c1ccc(Cl)cc1 [Compound 188] | 100 | 25 | – | – | – | TG (percent triglycerides inhibition), Table 3 (triglycerides): 95%
O=C(CCC1CCCCC1)COS(=O)(=O)c1ccccc1 [Compound 164, 2-oxo-4-cyclohexyl-butylbenzenesulfonate] | 100 | 2.2 | – | – | – | TG (percent triglycerides inhibition), Table 3 (triglycerides): 98%
CCCC(=O)COS(=O)(=O)CC [Compound 1, 2-oxopentylethane sulfonate] | – | 12 | – | 92 | 89 | LD50 (Acute toxicity; [4]): > 1000 mg/kg
Cc1ccc(S(=O)(=O)OCC(=O)CCC2CCCCC2)cc1 [Compound 167] | 100 | 3.1 | – | – | – | TG (percent triglycerides inhibition), Table 3 (triglycerides): 53%
CC(=O)OCCCC(=O)COS(=O)(=O)c1ccccc1 [Compound 195] | 22.2 | 26 | – | – | – | TG (percent triglycerides inhibition), Table 3 (triglycerides): 62%

Reference: US4489091A, “Antilipemic and anti-inflammatory compositions containing sulfonate derivatives” (Taiho Pharmaceutical Company Limited, priority 1980, dated 1984)
